Reference: patent US8608961B2, “Method for affinity chromatography of antithrombin III” (Aventis Pharma S.A., priority 2005, dated 2013)

Tested on: factor Xa
Assay: anti-Xa activity of fractions separated by ATIII affinity chromatography
Format: biochemical
Conditions: fractions of LMWH (hexasaccharides) separated on ATIII affinity column 1 (protection: enoxaparin) or column 2 (protection: heparin); hexasaccharide for comparison
Text: The composition of the elution fractions may then be analyzed according to methods well known to those skilled in the art. Thus, if the fractions analyzed comprise oligosaccharides, those skilled in the art may use the analytical methods described in the prior art: for example and in a nonlimiting manner, capillary electrophoresis, MALDI-TOF mass spectrophotometry, high performance liquid chromatography. Those skilled in the art may also use a biological assay, such as the factor Xa inhibition assay.
In order to corroborate the structural analysis, the anti-Xa activities of the fractions having affinity and not having affinity, separated in column 1 (protection: enoxaparin), were determined.

ΔUA-(1→4)α-GlcNAc(6S)-(1→4)β-GlcA-(1→4)α-GlcNS(NS,3,6S)-(1→4)β-IdA2S-(1→4)α-GlcNS(NS,6S)
anti-Xa activity: 650-700 IU/mg
